For data set [1], the system named is P. falciparum 3D7. Kind of data set: SYBR Green I-based fluorescence in vitro growth inhibition assay. It counts as cell-based, Plasmodium falciparum. The conditions noted are these: for IC50: Plasmodium falciparum, read-out: IC50 P. falciparum 3D7. The procedure:
(§1) P. falciparum strains 3D7 and K1 were cultivated in 2% washed human O-positive erythrocytes (supplied by Japanese Red Cross Society, Hokkaido, Japan) using a multi-gas incubator (37 °C, 5% CO2 and 5% O2).
(§2) Briefly, test compounds were diluted in complete medium to eight desired concentrations (2-fold serial dilution). […] Next, 50 μL of synchronous parasites at 0.5% parasitemia and 2% hematocrit was seeded in a 96-well plate containing 50 μL of test compounds. The 96-well plate was incubated for 72 h at 37 °C, 5% CO2 and 5% O2. Next, 100 μL of lysis buffer containing 0.02% (v/v) SYBR Green I was added to each well and mixed and then the 96-well plate was incubated at room temperature for 2 h in the dark. […] Erythrocytes treated with 1% DMSO were used as a negative control and wells containing only test compounds and erythrocytes were used to correct background signals. In at least three independent trials, the inhibition assay was performed in quadruplicate for each concentration.

The next data set concerns P. falciparum K1. The data set is described as above. It is filed as cell-based, Plasmodium falciparum. The conditions noted are these: for IC50: Plasmodium falciparum, read-out: IC50 P. falciparum K1. On the procedure: as §1, §2
Data set [2] is described as follows: Erythrocyte hemolysis assay. It is filed as cell-based. The conditions noted are these: human, 3 h at 37 °C, mean ± SD, read-out: RBC Hemolysis Rate (%) at 100 μM.
Method: An erythrocyte hemolysis assay was performed as previously described [21]. Briefly, 100 μL of each compound (final concentration, 100 μM) in 1× phosphate-buffered saline (PBS) was seeded in a 96-well plate and 100 μL of a 3% erythrocyte suspension in PBS was added. The plate was incubated for 3 h at 37 °C, 5% CO2 and 5% O2 and then centrifuged at 1300× g for 5 min. Subsequently, 100 μL of the supernatant of each mixture was transferred to a new 96-well plate and the absorbance was recorded at 540 nm. […] The erythrocyte hemolysis rate was calculated using the following formula: hemolysis rate = ([Asample − Anegative control]/[Apositive control − Anegative control] × 100), where A is absorbance [21]. The experiments were performed in triplicate and repeated three times independently.
The subject of data set [3] is P. falciparum 3D7. Kind of data set: Microscopic analysis of parasitemia and morphology (Giemsa-stained thin blood smears). It is filed as cell-based, Plasmodium falciparum. On the procedure:
The parasites were tightly synchronized using a two-step sorbitol treatment protocol and used at the ring stage with 0.5% parasitemia and 2% hematocrit. Sm (50 and 10 nM) in complete medium and 1% DMSO in complete medium were used as the treated and untreated groups, respectively, in this assay. Subsequently, the Giemsa-stained thin blood smears of each treatment group were prepared after 1, 24, 48, or 72 h of incubation. After 72 h, incubation was continued after changing the medium in either the presence (unwashed group) or absence (washed group) of Sm for up to 144 h. Subsequently, the Giemsa-stained thin blood smears of each treatment group were prepared at 96, 120 and 144 h. The blood smears were observed using a BZ-900 all-in-one microscope (Keyence BioRevo, Tokyo, Japan). The parasitemia levels were determined by enumerating the number of infected erythrocytes in relation to uninfected erythrocytes (a minimum of 500 cells were counted). The assay was performed in triplicate for each concentration and time point.

In a further data set the test system is P. yoelii 17XNL. Kind of data set: Uncomplicated rodent malaria model, 7-day treatment (modified Peters' test). It counts as in vivo, C57BL/6 J mice. On the procedure: (§3) Male C57BL/6 J mice (8 weeks old with body weight of 20–25 g; six mice per group) were purchased from Japan CLEA (Tokyo, Japan). The mice were allowed free access to water and food (CLEA Rodent Diet CE-2; Japan CLEA, Tokyo, Japan). The room temperature (24 °C), relative humidity (50%) and lighting (light from 8 a.m. to 8 p.m.) were adjusted and controlled. P. yoelii 17XNL and P. berghei ANKA were recovered from frozen packed erythrocyte stocks via passage in mice following intraperitoneal (i.p.) injection. Challenge experiments were performed with i.p. injections of 1 × 10^7 fresh infected erythrocytes from donor mice (designated as 0 days post-infection (dpi)). Approximately 2 h after the injection, 2 μL of blood was collected from the tip of the mice’s tail and the parasitemia levels were checked using Giemsa-stained thin blood smears. When the parasitemia level reached 1%, the infected mice were intraperitoneally treated with vehicle (1 × PBS) or Sm at a dose of 100 or 300 μg/kg (modified from reported IC50 in Ref. [22]) once daily for 7 days (0–6 dpi; modified Peters’ test) for P. yoelii 17XNL and 300 μg/kg once daily for 4 (0–3 dpi; Peters’ 4-day test) or 7 days (0–6 dpi, [23]) for P. berghei ANKA. The survival and clinical signs of mice were monitored daily after infection. Mice with high clinical signs (arched back, immobility, >20% body weight loss and pain sign) were euthanized immediately. Parasitemia in P. yoelii 17XNL-infected mice was observed daily using Giemsa-stained thin blood smears (up to 30 dpi).
A p-value of <0.05 was considered statistically significant and is shown as an asterisk or a symbol, defined in each table/figure legend together with the name of the test used.

The next data set deals with P. berghei ANKA. Description: Complicated rodent malaria model, survival (Peters' 4-day test or 7-day regimen). It is filed as in vivo, C57BL/6 J mice. The conditions noted are these: up to 25 dpi. The procedure: as §3, with “Mice with high clinical signs (arched back, immobility, >20% body weight loss and pain sign) were euthanized immediately. Parasitemia in P. yoelii 17XNL-infected mice was observed daily using Giemsa-stained thin blood smears (up to 30 dpi).” left out

A further data set relates to mice. The conditions noted are these: i.p. administration; cited from earlier work.
Data set [4] has as its system patients (with advanced carcinoma). Also on record: method as in PMID 5928140. The conditions noted are these: daily doses; after 13 days (total dose 0.24 mg/kg) and 15 days (total dose 0.15 mg/kg); cited from earlier work.
For a further data set, the system named is retinas of animals. Also on record: method as in PMID 3310108. The conditions noted are these: animals treated with toxic doses; cited from earlier work.
Data set [5] is described as follows: In vitro cytotoxicity, cell viability assay (CCK-8). The conditions noted are these: human, human foreskin fibroblasts (HFFs).
Method: A cell viability assay was used to evaluate the cytotoxic action of Sm as described previously [18]. Briefly, a 100 μL cell suspension was seeded in a 96-well plate at a concentration of 1 × 10^5 cells/mL in DMEM containing 10% FBS and incubated for 48 h at 37 °C and 5% CO2. Next, 2-fold dilutions (total of eight concentrations) of test compounds in DMEM were added in quadruplicate to each well and incubated for an additional 72 h.
Data were analyzed using GraphPad Prism 8 (GraphPad Software, Inc., La Jolla, CA, USA). IC50 or CC50 values were calculated from three independent experiments using a non-linear regression fit to logarithm concentration value of the compound versus inhibition percentage of parasite or cell growth, respectively.

The values that follow come from paper PMC8954220, “Sparsomycin Exhibits Potent Antiplasmodial Activity In Vitro and In Vivo” (Pharmaceutics, 2022).

Where two headings read alike, the source gives them in different places.

In general, IC50 refers to the concentration that gives 50% inhibition. As for `C[C@@H]1CC[C@H]2[C@@H](C)C(=O)O[C@@H]3O[C@@]4(C)CC[C@@H]1[C@]32OO4` [Artemisinin, artemisinin, reference compound], the IC50 in the data set on P. falciparum 3D7 [1] (3D7, 72 h exposure, mean ± SD of three independent experiments) amounted to 13.2 ± 2.66 nM; in the data set with P. falciparum K1 (K1, 72 h exposure, mean ± SD of three independent experiments), 19.9 ± 1.51 nM.
The CC50 is the concentration giving 50% cytotoxicity. A low value points to greater toxicity to the cells. For `CSC[S@+]([O-])C[C@H](CO)NC(=O)/C=C/c1c(C)[nH]c(=O)[nH]c1=O` [Sparsomycin, sparsomycin], the IC50 in the data set with P. falciparum 3D7 [1] (3D7, 72 h) was 12.1 ± 4.41 nM; in the data set on P. falciparum K1 (K1, 72 h), 25.4 ± 8.15 nM. The “SI for P. falciparum 3D7” value in the data set on P. falciparum 3D7 [1] (selectivity index, ratio between IC50 (3D7) and CC50 (HFF)) is recorded as 94.45. Moreover, the “Resistance Index” value in the data set with P. falciparum K1 (ratio between the IC50 values of P. falciparum K1 and 3D7) is 2.1. In the data set with P. falciparum K1 (selectivity index, ratio between IC50 (K1) and CC50 (HFF)), the “SI for P. falciparum K1” value is listed as 44.83. Also, the hemolysis at 3 h, 100 µM in data set [2] was 1.04 ± 0.23%. Besides, the Parasite morphology result in the data set with P. falciparum 3D7 [3] (50 nM for 72 h) is “induced morphological alterations, including shrinkage”. Besides, the “Parasitemia levels along the incubation period” value in the data set on P. falciparum 3D7 [3] (10 or 50 nM, 1–72 h) was “not increased”. In addition, the “Parasite life cycle stage under exposure” value in the data set with P. falciparum 3D7 [3] (10 or 50 nM, 1–72 h of incubation, ring-stage synchronized) is given as “blocked in the ring stage”. The “Parasite growth after removal of compound (washed group)” value in the data set with P. falciparum 3D7 [3] (72 h exposure to 10 or 50 nM, then further 72 h without compound (up to 144 h)) is listed as “not restored”. The “Parasitemia levels versus control” value in the data set with P. yoelii 17XNL (100 μg/kg i.p. once daily for 7 days) is “did not significantly alter”. For the same compound, in the data set on P. yoelii 17XNL (300 μg/kg i.p. once daily for 7 days), the Parasitemia versus control entry was “significantly reduced”. In the data set on P. yoelii 17XNL (300 μg/kg i.p. once daily for 7 days, peak at 11 dpi, control 40.13% (12 dpi)), this compound showed a Parasitemia peak of 18.85%. Also, in the data set on P. yoelii 17XNL (100 or 300 μg/kg i.p. once daily for 7 days, up to 30 dpi), the Mortality entry is given as “No mortality”. Further, the Prolongation of survival in the data set on P. berghei ANKA (300 μg/kg i.p. once daily for 4 days, significant (p < 0.05)) is 33.33%; in the data set on P. berghei ANKA (300 μg/kg i.p. once daily for 7 days, statistically insignificant (p > 0.05)), 33.33%. Moreover, the LD50 in the data set on mice is 170 to 380 μg/kg per injection. The “Patients developing ring scotoma (Sm-related retinopathy)” value in [4] is listed as “two out of five patients”. In addition, the “Pathological changes in the retinas” value in the data set with retinas of animals is on record as “no observable pathological changes”. For the same compound, in [5], the CC50 at 72 h is 1140 ± 30 nM.
Take `CCN(CC)CCCC(C)Nc1ccnc2cc(Cl)ccc12` (stereo not drawn) [Chloroquine, Chloroquine diphosphate, reference compound]: the IC50 was 26.2 ± 3.66 nM in the data set with P. falciparum 3D7 [1] (3D7, 72 h) and 740 ± 95.7 nM in the data set on P. falciparum K1 (K1, 72 h).
